From PMC6801585, “Improved In Vivo Anti-Tumor and Anti-Metastatic Effect of GnRH-III-Daunorubicin Analogs on Colorectal and Breast Carcinoma Bearing Mice” (International Journal of Molecular Sciences, 2019) come the findings set out here.

Structures are written as SMILES. Values joined by “and” are separate entries in the source; they are usually repeats but may differ in a detail not shown here. Identical values can stand only once.

In data set [1] the test system is MDA-MB-231 human breast carcinoma. Put plainly: Orthotopic MDA-MB-231 human breast tumor model. Format: in vivo, SCID female mice.
Method: Adult SCID female mice (22–28 g) were used in this experiment and kept under the same conditions, as described above. […] The treatments started 21 days after cells inoculation, when average tumor volume was 40 mm^3. Free Dau and conjugates were administrated by i.p. injection. Four groups with seven animals per group were established and treated with certain doses and schedules. The mice in the control group were treated with sterile water, while the mice in the free Dau group were treated with a dose of 1 mg/kg, once per week, on day 21, 28, 35 and 42 after cell inoculation. […] The last treatment was performed on day 42 after cell inoculation, whereby a dose of 7.5 mg/kg Dau content was applied. The animal weights and tumor volumes were measured when the treatment was initiated and at periodic intervals according to the treatment schedule. The tumor volume was calculated in the same manner as described for mice breast carcinoma. […] The mice from all groups were sacrificed by cervical dislocation and primary tumors and livers were harvested and weighed, while number of animals with metastases were counted. The anti-tumor effects of the conjugates were evaluated measuring the tumor volume and the tumor weights, while the toxicity effects of conjugates were evaluated measuring liver weights and calculating the liver weight/body weight ratio.
In data set [2] the test system is C26. In words: In vitro anti-proliferative activity (MTT assay). Format: cell-based. The settings on record: Mus musculus, C26 (mice colon), 24 h treatment + 48 h culture, average ± SD. As for the experimental part: (§1) In experimental procedures following cell lines were used, MDA-MB-231 and MCF-7 (human breast cancer), 4T1 (mice breast cancer), DU145 and PC-3 (human prostate cancer), A2780, OVCAR-3 and OVCAR-8 (human ovarian cancer), HepG2 (human liver cancer), A2058, WM983b, HT168-M1/9 and M24 (human melanoma), B16 (mice melanoma), H1975, H1650 and A549 (human lung cancer), HT-29 (human colorectal adenocarcinoma), C26 (mice colon cancer) and PANC-1 (pancreatic cancer) were cultured in RPMI 1640 Medium with glutamine (Roswell Park Memorial Institute Medium, Lonza, Basel, Switzerland). Moreover, U87MG (human malignant glioma) and MRC-5 (normal human fibroblast) were cultured in Dulbecco’s Modified Eagle’s Medium (DMEM, Lonza) and PE/CA-PJ15 and PE/CA-PJ41 (head and neck cancer) were cultured in Iscove’s Modified Dulbecco’s Medium (IMEM, Sigma Aldrich, St. Louis, MO, USA). Apart from the cell culture medium for OVCAR-3 cells, all media were supplemented with 10% heat-inactivated FBS (Fetal Bovine Serum, Euroclone, Milan, Italy) and 1% Penicillin/Streptomycin (Sigma Aldrich), while OVCAR-3 cells were cultured in 20% FBS containing RPMI medium. The cell lines were mainly obtained from ATCC, except for PE/CA-PJ15, PE/CA-PJ41 (ECACC), A2058 (kindly provided by L.A. Liotta, NCI, Bethesda, MD, USA), HT-168-M1/9 (derived from A2058), M24 (kind gift from B.M. Mueller, Scripps Research Institute, La Jolla, CA, USA) and WM983b (kindly provided by Meenhard Herlyn, Wistar Institute, Philadelphia, PA, USA). Cells were cultured in sterile T25 or T75 flasks with ventilation cap (Sarstedt, Nümbrecht, Germany) at 37 °C in a humidified atmosphere with 5% CO2.
(§2) For the evaluation of the in vitro anti-proliferative activity of the GnRH-III conjugates and free Dau, the cell viability was determined by MTT assay (3-(4,5-dimethylthiazol-2-yl)-2,5-diphenyl-tetrazolium bromide) that was obtained from Sigma Aldrich. After standard harvesting of the cells by trypsin-EDTA (Lonza), 4 × 10^3 till 10 × 10^3 cells per well depending on cell line, were seeded in serum containing growth medium to 96-well plates (Sarstedt) and incubated. After 24 h, the growth medium was removed and cells were treated with various concentrations of conjugates 1 and 2 (32 nM–100 µM) or free Dau (0.1 nM–10 µM), dissolved in serum free medium and incubated for 24 h under standard conditions. The control wells were treated with serum free medium. After 24 h of treatment, the cells were washed twice with serum free medium and then cultured in serum containing medium for an additional 48 h. Afterward, the MTT assay was performed, in order to determine cell viability, by adding 20 µL of MTT solution (5 mg/mL in PBS) to each well and after 2 h of incubation at 37 °C, the supernatant was removed. The formazan crystals were dissolved in 100 µL of a 1:1 solution of DMSO (Sigma Aldrich):EtOH (Molar Chemicals Kft., Halásztelek, Hungary) and the absorbance was measured after 15 min. at λ = 570 nm by using a microplate reader (Bio-Rad, model 550, Hercules, CA, USA). The IC50 values of the conjugates and free drug were calculated while using GraphPad Prism 6 (GraphPad Software, San Diego, CA, USA). The experiments were done in triplicate and each experiment was repeated twice.
(Tetrazolium assays rely on reduction of a dye to a coloured formazan, in cell work by metabolically active cells.)

For data set [3], the system named is MCF-7. In words: In vitro anti-proliferative activity (MTT assay). Format: cell-based. The following applies: Homo sapiens, MCF7, MCF-7 (breast), 24 h treatment + 48 h culture, average ± SD. As for the experimental part:
as §1, §2

Data set [4] has as its system HepG2. In words: In vitro anti-proliferative activity (MTT assay). Format: cell-based. The settings on record: Homo sapiens, HepG2 (liver), 24 h treatment + 48 h culture, average ± SD. As for the experimental part: as §1, §2
Data set [5] has as its system MDA-MB-231. In words: In vitro anti-proliferative activity (MTT assay). Format: cell-based. The following applies: Homo sapiens, MDA-MB-231 (breast), 24 h treatment + 48 h culture, average ± SD. As to the method: as §1, §2
In data set [6] the test system is OVCAR-8. In words: In vitro anti-proliferative activity (MTT assay). Format: cell-based. The settings on record: Homo sapiens, OVCAR-8 (ovarian), 24 h treatment + 48 h culture, average ± SD. As to the method: as §1, §2
For data set [7], the system named is A549. Put plainly: In vitro anti-proliferative activity (MTT assay). The following applies: Homo sapiens, A549 (lung), 24 h treatment + 48 h culture, average ± SD. Format: cell-based. As for the experimental part:
as §1, §2

Data set [8] deals with B16. Put plainly: In vitro anti-proliferative activity (MTT assay). Format: cell-based. The following applies: Mus musculus, B16 (mice melanoma), 24 h treatment + 48 h culture, average ± SD. As to the method:
as §1, §2

The test system of data set [9] is WM983b. Put plainly: In vitro anti-proliferative activity (MTT assay). The following applies: Homo sapiens, WM983b (melanoma), 24 h treatment + 48 h culture, average ± SD. Format: cell-based. As for the experimental part:
as §1, §2

Data set [10] deals with U87MG. Put plainly: In vitro anti-proliferative activity (MTT assay). Format: cell-based. The settings on record: Homo sapiens, U-87 MG, U87MG (glioblastoma), 24 h treatment + 48 h culture, average ± SD. As for the experimental part: as §1, §2
Data set [11] relates to H1650. In words: In vitro anti-proliferative activity (MTT assay). Format: cell-based. The settings on record: Homo sapiens, NCI-H1650, H1650 (lung), 24 h treatment + 48 h culture, average ± SD. As to the method:
as §1, §2

Data set [12] relates to 4T1. Put plainly: In vitro anti-proliferative activity (MTT assay). Format: cell-based. The settings on record: Mus musculus, 4T1 (mice breast), 24 h treatment + 48 h culture, average ± SD. As to the method:
as §1, §2

Data set [13] has as its system HT-29. Put plainly: In vitro anti-proliferative activity (MTT assay). Format: cell-based. The settings on record: Homo sapiens, HT-29 (colon), 24 h treatment + 48 h culture, average ± SD. As to the method: as §1, §2
In data set [14] the test system is M24. Put plainly: In vitro anti-proliferative activity (MTT assay). Format: cell-based. The settings on record: Homo sapiens, M24 (melanoma), 24 h treatment + 48 h culture, average ± SD. As for the experimental part: as §1, §2
The test system of data set [15] is A2058. Put plainly: In vitro anti-proliferative activity (MTT assay). Format: cell-based. The following applies: Homo sapiens, A2058 (melanoma), 24 h treatment + 48 h culture, average ± SD. As for the experimental part:
as §1, §2

Data set [16] has as its system DU145. In words: In vitro anti-proliferative activity (MTT assay). The following applies: Homo sapiens, DU-145, DU145 (prostate), 24 h treatment + 48 h culture, average ± SD. Format: cell-based. As to the method:
as §1, §2

The mark [17] stands for this setting: SCID mice, i.p., 1 and 2 15 mg/kg Dau content x6 + 7.5 mg/kg x1, free Dau 1 mg/kg x4, day 45, 7 per group.

Usually IC50 stands for the concentration that gives 50% inhibition. Consider `COc1cccc2c1C(=O)c1c(O)c3c(c(O)c1C2=O)C[C@@](O)(C(C)=O)C[C@@H]3O[C@H]1C[C@H](N)[C@H](O)[C@H](C)O1` [Dau, daunorubicin], for which the “Decrease of liver/body weight ratio compared to control” value in [1] (1 and 2 15 mg/kg Dau content x6 + 7.5 mg/kg x1, free Dau 1 mg/kg x4, day 45) came out at 16.8%. The “Decrease of body weight at the end of experiment compared to the beginning” value in data set [1] (setting [17]) came to 20%. Moreover, the “Inhibition of tumor volume compared to control” value in data set [1] (setting [17]) was 46.3% and 46%. The “Inhibition of tumor weight” value in [1] (setting [17]) came out at 40.1%. The “Number of mice with metastases close to the primary tumor” value in [1] (end of experiment day 45, control 5/5) was “four out of seven and 4/7 and 4/7 ^2”. In addition, the IC50 in data set [2] was 118 ± 8.6 nM; in [3], 63.9 ± 21 nM; in data set [4], 22.9 ± 1.4 nM; in data set [5], 54.6 ± 7.4 nM; in [6], 186 ± 99.8 nM; in data set [7], 69.3 ± 23.5 nM. Further, the IC50 in data set [8] was 26 ± 8 nM; in data set [9] it was 49.8 ± 22.9 nM; in data set [10] it was 126 ± 53.7 nM; in data set [11], 50.3 ± 13.4 nM; in data set [12] it was 56 ± 14.7 nM; in data set [13], 202.9 ± 1 nM. In addition, the IC50 worked out at 119 ± 25 nM in [14], 35.1 ± 14.9 nM in data set [15] and 16.3 ± 4.6 nM in data set [16].
